The results in this text go back to ChEMBL document CHEMBL4819072, “Radioligand and computational insight in structure - Activity relationship of saccharin derivatives being ipsapirone and revospirone analogues” (Bioorg Med Chem Lett, 2021).

Holding throughout (type): cell-based
The target in assay [1] is T1, 5-hydroxytryptamine receptor 1A (Homo sapiens, UniProt P08908).
T1 sequence (P08908 whole entry): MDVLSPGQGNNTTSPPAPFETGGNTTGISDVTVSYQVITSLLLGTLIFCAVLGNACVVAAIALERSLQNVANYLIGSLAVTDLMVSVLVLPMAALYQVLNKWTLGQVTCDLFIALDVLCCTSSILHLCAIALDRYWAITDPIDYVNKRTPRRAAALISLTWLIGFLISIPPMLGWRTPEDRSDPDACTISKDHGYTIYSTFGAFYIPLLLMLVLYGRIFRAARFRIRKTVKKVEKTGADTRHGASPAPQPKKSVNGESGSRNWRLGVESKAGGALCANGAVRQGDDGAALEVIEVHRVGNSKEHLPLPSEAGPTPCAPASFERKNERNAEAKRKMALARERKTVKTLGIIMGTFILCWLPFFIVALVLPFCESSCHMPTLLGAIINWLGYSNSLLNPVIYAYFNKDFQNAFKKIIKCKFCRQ
Briefly: Displacement of [3H]-[…] from human 5-HT1AR expressed in human HEK293 cells. On the technique in general: Displacement assays read how much labelled ligand stays bound in the presence of the test substance.

In assay [2] the target is 5-hydroxytryptamine receptor 2A (Homo sapiens, UniProt P28223). The experiment in a line: Displacement of [3H]-ketanserin from human 5-HT2AR expressed in CHO cells.
5-hydroxytryptamine receptor 2A, sequence (P28223 whole entry): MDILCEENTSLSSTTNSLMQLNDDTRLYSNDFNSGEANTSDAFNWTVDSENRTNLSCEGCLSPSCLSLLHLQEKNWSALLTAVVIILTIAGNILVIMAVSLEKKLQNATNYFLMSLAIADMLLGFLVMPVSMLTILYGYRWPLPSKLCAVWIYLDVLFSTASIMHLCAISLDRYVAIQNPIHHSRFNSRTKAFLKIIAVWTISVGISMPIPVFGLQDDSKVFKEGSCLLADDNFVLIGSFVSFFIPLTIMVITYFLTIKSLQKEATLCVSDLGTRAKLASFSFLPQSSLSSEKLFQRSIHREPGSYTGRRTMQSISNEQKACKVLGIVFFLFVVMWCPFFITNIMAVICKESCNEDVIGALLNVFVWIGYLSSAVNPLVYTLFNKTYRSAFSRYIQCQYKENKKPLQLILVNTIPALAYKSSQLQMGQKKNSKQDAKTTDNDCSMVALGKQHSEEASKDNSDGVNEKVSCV
In assay [3] the target is 5-hydroxytryptamine receptor 6 (Homo sapiens, UniProt P50406). Briefly: Displacement of [3H]-LSD from human 5-HT6R expressed in human HEK293 cells.
5-hydroxytryptamine receptor 6, sequence (P50406 whole entry): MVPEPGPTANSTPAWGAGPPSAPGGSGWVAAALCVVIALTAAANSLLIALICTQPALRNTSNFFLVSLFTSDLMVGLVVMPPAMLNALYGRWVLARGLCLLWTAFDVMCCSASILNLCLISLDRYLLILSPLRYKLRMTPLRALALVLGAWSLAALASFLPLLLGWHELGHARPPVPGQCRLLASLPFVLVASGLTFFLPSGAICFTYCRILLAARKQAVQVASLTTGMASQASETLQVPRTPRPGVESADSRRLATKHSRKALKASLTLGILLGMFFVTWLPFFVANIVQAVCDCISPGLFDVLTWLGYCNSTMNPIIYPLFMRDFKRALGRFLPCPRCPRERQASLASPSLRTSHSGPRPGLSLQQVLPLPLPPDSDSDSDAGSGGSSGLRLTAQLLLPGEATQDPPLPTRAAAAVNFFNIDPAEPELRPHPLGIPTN
The target in assay [4] is 5-hydroxytryptamine receptor 7 (Homo sapiens, UniProt P34969). The experiment in a line: Displacement of [3H]-5CT from human 5-HT7R expressed in human HEK293 cells.
5-hydroxytryptamine receptor 7, sequence (P34969 whole entry): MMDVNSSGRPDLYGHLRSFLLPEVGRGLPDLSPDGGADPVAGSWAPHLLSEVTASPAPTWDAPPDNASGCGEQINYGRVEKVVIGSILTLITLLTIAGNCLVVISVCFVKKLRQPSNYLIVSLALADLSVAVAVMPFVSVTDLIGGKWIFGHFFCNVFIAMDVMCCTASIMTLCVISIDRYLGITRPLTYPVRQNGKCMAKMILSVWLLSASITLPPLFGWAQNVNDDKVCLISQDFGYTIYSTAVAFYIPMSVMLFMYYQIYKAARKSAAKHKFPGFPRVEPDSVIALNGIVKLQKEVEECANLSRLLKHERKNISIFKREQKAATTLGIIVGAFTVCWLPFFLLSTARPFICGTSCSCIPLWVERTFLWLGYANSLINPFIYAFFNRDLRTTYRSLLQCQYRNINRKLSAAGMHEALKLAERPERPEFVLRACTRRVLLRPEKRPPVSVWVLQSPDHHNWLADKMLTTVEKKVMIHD
The target in assay [5] is D(2) dopamine receptor (Homo sapiens, UniProt P14416). The experiment in a line: Displacement of [3H]-raclopride from human D2R expressed in human HEK293 cells.
D(2) dopamine receptor, sequence (P14416 whole entry): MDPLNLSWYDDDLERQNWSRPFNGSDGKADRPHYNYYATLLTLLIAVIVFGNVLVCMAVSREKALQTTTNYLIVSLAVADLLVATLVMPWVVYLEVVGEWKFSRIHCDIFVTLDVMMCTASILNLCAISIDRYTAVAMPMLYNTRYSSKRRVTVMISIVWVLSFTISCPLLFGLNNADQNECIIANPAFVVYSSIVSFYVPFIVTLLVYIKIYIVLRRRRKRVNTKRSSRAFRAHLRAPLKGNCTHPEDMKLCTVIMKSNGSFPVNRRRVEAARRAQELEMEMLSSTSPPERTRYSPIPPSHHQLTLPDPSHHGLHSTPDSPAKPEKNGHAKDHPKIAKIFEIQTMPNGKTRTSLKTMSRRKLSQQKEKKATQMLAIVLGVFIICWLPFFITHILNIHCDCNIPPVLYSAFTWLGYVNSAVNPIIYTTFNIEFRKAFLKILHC

By Ki is commonly meant a dissociation constant, usually derived from enzyme kinetics or from competition with a known ligand.

In assay [1], `NC(=O)c1ccccc1OCCCN1CCN(c2ccccc2)CC1` returned a Ki of 143 nM. This counts as sub-micromolar.

As to `O=C1c2ccccc2S(=O)(=O)N1CCCCCCN1CCN(c2cccc(Cl)c2Cl)CC1`, the Ki in assay [2] amounted to 299 nM; in assay [3], 72 nM; in assay [4], 487 nM.

In the case of `O=C1c2ccccc2S(=O)(=O)N1CCCCCCN1CCN(c2ncccn2)CC1`, the values for the Ki in assay [3] and in assay [4] were 5710 nM and 2510 nM, respectively.

With `O=C1c2ccccc2S(=O)(=O)N1CCCCCN1CCN(c2cccc(C(F)(F)F)c2)CC1`, the Ki in assay [2] was found to be 162 nM; in assay [5] it was 34 nM; in assay [1], 21 nM; in assay [3] it was 1350 nM; in assay [4], 35 nM.

On to `O=C1c2ccccc2S(=O)(=O)N1CCCCCN1CCN(c2ncccn2)CC1`, for which the inhibition constant (Ki) in assay [2] stood at 6310 nM; in assay [5] it was 954 nM; in assay [1], 6 nM; in assay [3], 7100 nM; in assay [4], 2670 nM.

For `O=C1c2ccccc2S(=O)(=O)N1CCN1CCN(c2cccc(C(F)(F)F)c2)CC1`, the Ki in assay [1] is over 5000 nM. The compound `COc1cccc(N2CCN(CCOc3ccccc3C(N)=O)CC2)c1` yielded a Ki in assay [1] of 155 nM.

In assay [1], `COc1cccc(N2CCN(CCCCCCn3c(=O)oc4ccccc4c3=O)CC2)c1` returned an inhibitory constant (Ki) of 18 nM.

Regarding `O=C1c2ccccc2C(=O)N1CCN1CCN(c2ccccc2)CC1`, in assay [1], the Ki is over 1000 nM. On to `O=C1c2ccccc2S(=O)(=O)N1CCCCCN1CCN(c2ccccc2)CC1`, for which the Ki in assay [2] is 313 nM; in assay [5], 165 nM; in assay [1], 16 nM; in assay [3], 1840 nM; in assay [4], 148 nM.

Compound `COc1cccc(N2CCN(CCCCOc3ccccc3C(N)=O)CC2)c1` came in with a Ki in assay [1] of 38 nM. This lies in the double-digit nanomolar range. Take `O=C1c2ccccc2C(=O)N1CCCN1CCN(c2ccccc2)CC1`: in assay [1], the affinity, expressed as Ki, was 200 nM. This Ki lies about 5.3-fold higher than the previous one. Regarding `COc1ccccc1N1CCN(CCCCCN2C(=O)c3ccccc3S2(=O)=O)CC1`, the Ki stood at 584 nM in assay [2]; 20 nM in assay [5]; 3 nM in assay [1]; 1990 nM in assay [3]; 125 nM in assay [4]. As to `O=c1oc2ccccc2c(=O)n1CCCCN1CCN(c2ccccc2)CC1`, in assay [1], the affinity, expressed as Ki, was 2.8 nM.

`COc1cccc(N2CCN(CCCOc3ccccc3C(N)=O)CC2)c1` returned a Ki in assay [1] of 21 nM. This Ki lies about 7.5-fold higher than the previous one.

Compound `COc1ccccc1N1CCN(CCCCCCOc2ccccc2C(N)=O)CC1` registered a Ki in assay [1] of 3 nM. Compared with the last compound, the Ki is about 7-fold lower.

Regarding `O=C1c2ccccc2C(=O)N1CCCCCN1CCN(c2ccccc2)CC1`, in assay [1], affinity was put at a Ki of 8.5 nM. `O=C1c2ccccc2C(=O)N1CCCCN1CCN(c2ccccc2)CC1`: the Ki in assay [1] was determined as 10 nM.

`COc1cccc(N2CCN(CCCn3c(=O)oc4ccccc4c3=O)CC2)c1` registered a Ki in assay [1] of 46 nM. Turning to `COc1cccc(N2CCN(CCCCn3c(=O)oc4ccccc4c3=O)CC2)c1`, the Ki in assay [1] was found to be 3.2 nM. Consider `COc1cccc(N2CCN(CCCCCOc3ccccc3C(N)=O)CC2)c1`, for which, in assay [1], affinity was put at a Ki of 4 nM. This Ki and that of the compound before are within 1.5-fold of each other. In turn, `O=C1c2ccccc2C(=O)N1CCCCCCN1CCN(c2ccccc2)CC1` displayed an inhibition constant (Ki) in assay [1] of 1 nM. For `COc1ccccc1N1CCN(CCCCCN2C(=O)c3ccccc3C2=O)CC1`, in assay [1], the Ki is 7.2 nM.

As for `COc1cccc(N2CCN(CCN3C(=O)c4ccccc4C3=O)CC2)c1`, the Ki in assay [1] is over 1000 nM.

`COc1ccccc1N1CCN(CCCCCCN2C(=O)c3ccccc3C2=O)CC1` yielded a Ki in assay [1] of 22 nM.

Take `O=C1c2ccccc2S(=O)(=O)N1CCCN1CCN(c2ncccn2)CC1` [REVOSPIRONE]: in assay [1], the Ki came out at 2 nM.

On to `COc1cccc(N2CCN(CCCCCn3c(=O)oc4ccccc4c3=O)CC2)c1`, for which the affinity in assay [1], expressed as Ki, was 20 nM. For `O=C1c2ccccc2S(=O)(=O)N1CCCCCCN1CCN(c2ccc(Cl)cc2)CC1`, the Ki is 299 nM in assay [2], 72 nM in assay [3] and 487 nM in assay [4]. With `COc1cccc(N2CCN(CCCN3C(=O)c4ccccc4C3=O)CC2)c1`, the Ki in assay [1] is 13 nM. In other words, the double-digit nanomolar range. `O=c1oc2ccccc2c(=O)n1CCCN1CCN(c2ccccc2)CC1` yielded a Ki in assay [1] of 402 nM.
